The target in this assay is T1, human GLP-1R (Homo sapiens, UniProt P43220).
T1 construct: expressed in transfected cells; crude membranes
The assay is described as follows: [125I]-GLP-1 binding, SPA with WGA beads, 0.1% bacitracin. To be noted: geometric mean, read-out: hGLP1R Ki. The essentials: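 Binding buffer was 25 mM HEPES pH 7.4 with 2.5 mM CaCl2, 1 mM MgCl2, 0.1% (w/v) bacitracin, 0.003% Tween-20 and EDTA-free protease inhibitors. Four-parameter regression gave IC50, converted to Ki (geometric mean, SEM, n independent days).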

Structures are written as SMILES. *1 amine or outer side, *2 acyl side, *3 side chain or, on linkers, in order; H or OH if unused. Where a SMILES comes first, the peptide text is derived from it. Side-chain parts run from the residue outwards. [ ]: non-standard residue; d: D form. The star is where a group is joined. C20 diacid = O=C(O)CCCCCCCCCCCCCCCCCCC(=O)*; C18 diacid = O=C(O)CCCCCCCCCCCCCCCCC(=O)*; γGlu = O=C(O)[C@H](CCC(=O)[*:2])N[*:1]; αMeL = CC(C)C[C@](C)(N)C(=O)O; Orn = NCCC[C@H](N)C(=O)O; AEEA = NCCOCCOCC(=O)O; Aib = CC(C)(N)C(=O)O Bounds are passed on as bounds.

T1 sequence (P43220 24-463): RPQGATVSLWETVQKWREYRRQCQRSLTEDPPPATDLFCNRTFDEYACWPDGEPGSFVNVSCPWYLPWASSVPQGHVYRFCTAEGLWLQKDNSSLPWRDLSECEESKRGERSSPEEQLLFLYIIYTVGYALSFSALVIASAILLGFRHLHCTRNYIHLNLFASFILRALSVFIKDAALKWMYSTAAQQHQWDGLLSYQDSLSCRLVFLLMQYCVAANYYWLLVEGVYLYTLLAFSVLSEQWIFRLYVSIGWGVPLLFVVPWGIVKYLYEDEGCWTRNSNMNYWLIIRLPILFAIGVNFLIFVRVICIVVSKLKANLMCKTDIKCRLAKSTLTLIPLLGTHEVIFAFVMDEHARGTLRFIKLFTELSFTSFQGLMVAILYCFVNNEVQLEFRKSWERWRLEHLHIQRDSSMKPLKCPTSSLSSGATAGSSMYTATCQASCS

By Ki is commonly meant the equilibrium dissociation constant of an inhibitor or competing ligand from its target. Consider `CC[C@H](C)[C@H](NC(=O)[C@H](CCCN)NC(=O)[C@H](CC(=O)O)NC(=O)[C@H](CC(C)C)NC(=O)[C@](C)(CC(C)C)NC(=O)[C@@H](NC(=O)[C@H](CO)NC(=O)[C@H](Cc1ccc(O)cc1)NC(=O)[C@H](CC(=O)O)NC(=O)[C@H](CO)NC(=O)[C@@H](NC(=O)[C@H](Cc1ccccc1)NC(=O)[C@@H](NC(=O)CNC(=O)[C@H](CCC(=O)O)NC(=O)C(C)(C)NC(=O)[C@@H](N)Cc1ccc(O)cc1)[C@@H](C)O)[C@@H](C)CC)[C@@H](C)CC)C(=O)N[C@@H](Cc1c[nH]cn1)C(=O)N[C@@H](CCC(N)=O)C(=O)NC(C)(C)C(=O)N[C@@H](CCC(=O)O)C(=O)N[C@@H](Cc1ccccc1)C(=O)N[C@H](C(=O)N[C@H](CCC(=O)O)C(=O)N[C@@H](Cc1ccc(O)cc1)C(=O)N[C@@H](CCCCNC(=O)COCCOCCNC(=O)COCCOCCNC(=O)CC[C@H](NC(=O)CCCCCCCCCCCCCCCCCCC(=O)O)C(=O)O)C(=O)N[C@@H](CC(C)C)C(=O)N[C@@H](CCC(=O)O)C(=O)NCC(=O)NCC(=O)N1CCC[C@H]1C(=O)N[C@@H](CO)C(=O)N[C@@H](CO)C(=O)NCC(=O)N[C@@H](C)C(=O)N1CCC[C@H]1C(=O)N1CCC[C@H]1C(=O)N1CCC[C@H]1C(=O)N[C@@H](CO)C(N)=O)C(C)C` [Example 102] (H-Y[Aib]EGTFISDYSI[αMeL]LD[Orn]IHQ[Aib]EFV[dE]YK([AEEA-AEEA-γGlu-C20 diacid])LEGGPSSGAPPPS-NH2), for which the Ki is above 913 nM.
`CC[C@H](C)[C@H](NC(=O)[C@H](CCCN)NC(=O)[C@H](CC(=O)O)NC(=O)[C@H](CC(C)C)NC(=O)[C@](C)(CC(C)C)NC(=O)[C@@H](NC(=O)[C@H](CO)NC(=O)[C@H](Cc1ccc(O)cc1)NC(=O)[C@H](CC(=O)O)NC(=O)[C@H](CO)NC(=O)[C@@H](NC(=O)[C@H](Cc1ccccc1)NC(=O)[C@@H](NC(=O)CNC(=O)[C@H](CCC(=O)O)NC(=O)C(C)(C)NC(=O)[C@@H](N)Cc1ccc(O)cc1)[C@@H](C)O)[C@@H](C)CC)[C@@H](C)CC)C(=O)N[C@@H](Cc1c[nH]cn1)C(=O)N[C@@H](CCC(N)=O)C(=O)NC(C)(C)C(=O)N[C@@H](CC(=O)O)C(=O)N[C@@H](Cc1ccccc1)C(=O)N[C@H](C(=O)N[C@@H](CCC(=O)O)C(=O)N[C@@H](Cc1ccc(O)cc1)C(=O)N[C@@H](CCCCNC(=O)COCCOCCNC(=O)COCCOCCNC(=O)CC[C@H](NC(=O)CCCCCCCCCCCCCCCCC(=O)O)C(=O)O)C(=O)N[C@@H](CC(C)C)C(=O)N[C@@H](CCC(=O)O)C(=O)NCC(=O)NCC(=O)N1CCC[C@H]1C(=O)N[C@@H](CO)C(=O)N[C@@H](CO)C(=O)NCC(=O)N[C@@H](C)C(=O)N1CCC[C@H]1C(=O)N1CCC[C@H]1C(=O)N1CCC[C@H]1C(=O)N[C@@H](CO)C(N)=O)C(C)C` [Example 103] (H-Y[Aib]EGTFISDYSI[αMeL]LD[Orn]IHQ[Aib]DFVEYK([AEEA-AEEA-γGlu-C18 diacid])LEGGPSSGAPPPS-NH2): the Ki is above 913 nM.

Values taken from patent US12723063B2, “GIPR-agonist compounds” (Eli Lilly and Company, priority 2019, dated 2026).
